# Data reported in ChEMBL document CHEMBL1201862, “PubChem BioAssay data set” (2004).
# Active and inactive are the calls of the source.
# Key:
# Jurkat = test: antigen receptor-induced NF-kB inhibitors, dose response, Jurkat, luciferase reporter, luminescence, B- and T-cell (AID 489004); type: functional, cell-based; details: Homo sapiens;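 further: NF-kB luciferase reporter Jurkat cells stimulated with PMA plus ionomycin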
# INS1 = test: beta cell apoptosis inhibitors, cytokine rescue, dose response, luminescence, retest (AID 449756); type: functional, cell-based; details: Rattus norvegicus;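 further: cell death triggered by IL-1 beta plus TNF-alpha plus IFN-gamma mixture; protective hits raise ATP signal compared with cytokine alone wells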
# [1] = cytotoxicity in HEK-293T NF-kB-Luc cells, dose response, cytotoxicity control for B/T-cell NF-kB inhibitor project, cell-based, uHTS hits (AID 489019); type: functional;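 further: IC50 reflects cytotoxicity as loss of cell viability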
# Beta-galactosidase = Beta-galactosidase (Escherichia coli, UniProt Q8VNN2); test: PubChem AID 485352; type: functional
# [2] = target: Type-1 angiotensin II receptor (Homo sapiens, UniProt P30556); test: AT1 receptor antagonists, dose response, selectivity assay for APJ receptor antagonist project, cell-based, uHTS hits (AID 463214); type: functional;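 further: antagonist potency against angiotensin II stimulated AT1 response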
# [3] = target: Voltage-gated inwardly rectifying potassium channel KCNH2 (Homo sapiens, UniProt Q12809); details: Potency;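 further: confirmatory quantitative high-throughput screen measuring inhibition of hERG channel activity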
# [4] = target: Heat shock protein HSP 90-alpha (Homo sapiens, UniProt P07900); type: functional, organism-based
# [5] = target: DNA damage-inducible transcript 3 protein (Mus musculus, UniProt P35639); type: functional, Cricetulus griseus
# BJ = test: cytotoxicity toward Ras-transformed BJeLR fibroblasts, dose response, cell-based, alamar blue fluorescence, cherrypicked samples (AID 2631); type: functional; details: Homo sapiens;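 further: confirmatory dose-response assay in RAS-dependent BJ fibroblasts engineered with TERT, LT and ST, with cytotoxicity read by fluorescence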
# X-box-binding protein 1 = X-box-binding protein 1 (Homo sapiens, UniProt P17861); type: functional, Cricetulus griseus;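 further: confirmatory dose-response counter-screen serving a CHOP assay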
# HeLa = test: Cytotoxicity counterscreen assay for transcriptional activators of heat shock protein 70 (Hsp70). [Related pubchem assays: 1203, 1252 ]; type: functional; details: Homo sapiens;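 further: cells exposed to compound for 16 hours before readout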
# [6] = target: T1, Beta-adrenergic receptor kinase 1 (Homo sapiens, UniProt P25098); test: GRK2 inhibitors displacing RNA aptamer, dose response, biochemical, flow cytometry beads, FAM-aptamer, powder set 1 (AID 588720)
# [7] = target: Peroxisome proliferator-activated receptor gamma/Nuclear receptor corepressor 2 (Homo sapiens, UniProt P37231+Q9Y618); test: Counterscreen for NR2E3 inverse agonists: TR-FRET-based biochemical high throughput dose response assay to identify inverse agonists of the interaction between peroxisome proliferator-activated receptor gamma (PPARg) and nuclear receptor co-repressor 2 (NCOR2).; type: functional
# [8] = target: T2, Carboxy-terminal domain RNA polymerase II polypeptide A small phosphatase 1 (Homo sapiens, UniProt Q9GZU7); test: inhibitors of CTDSP1, concentration-response testing, biochemical assay, absorbance-based, actives from ultra-high-throughput screening (AID 540297); type: functional
# T2 sequence (Q9GZU7 whole entry): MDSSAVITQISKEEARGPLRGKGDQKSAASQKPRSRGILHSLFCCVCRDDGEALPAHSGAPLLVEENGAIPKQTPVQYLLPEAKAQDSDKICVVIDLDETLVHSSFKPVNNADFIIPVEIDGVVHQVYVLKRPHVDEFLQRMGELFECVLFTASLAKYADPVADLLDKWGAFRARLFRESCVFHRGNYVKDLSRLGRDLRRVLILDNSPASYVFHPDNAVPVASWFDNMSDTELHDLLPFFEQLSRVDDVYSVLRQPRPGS
# [9] = target: T1, Beta-adrenergic receptor kinase 1; test: aptamer displacement from bead-bound GRK2 – biochemical, cherry pick 1, bead flow cytometry, dose response (AID 504500)
# [10] = target: Photoreceptor-specific nuclear receptor (Homo sapiens, UniProt Q9Y5X4); test: NR2E3 inverse agonists, dose response, biochemical, TR-FRET (AID 463256); type: functional
# [11] = target: T3, Heat shock factor protein 1 (Mus musculus, UniProt P38532); test: inhibition of MG132-induced HSE-luciferase signal, confirmation, cell-based, NIH3T3, luminescence, dose retest (AID 2382); type: functional;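 further: NIH3T3 fibroblasts with HSF1-driven luciferase reporter stressed by proteasome inhibitor MG132; luminescence from HSF1-driven luciferase expression after 8 hours of MG132 stress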
# T3 sequence (P38532 whole entry): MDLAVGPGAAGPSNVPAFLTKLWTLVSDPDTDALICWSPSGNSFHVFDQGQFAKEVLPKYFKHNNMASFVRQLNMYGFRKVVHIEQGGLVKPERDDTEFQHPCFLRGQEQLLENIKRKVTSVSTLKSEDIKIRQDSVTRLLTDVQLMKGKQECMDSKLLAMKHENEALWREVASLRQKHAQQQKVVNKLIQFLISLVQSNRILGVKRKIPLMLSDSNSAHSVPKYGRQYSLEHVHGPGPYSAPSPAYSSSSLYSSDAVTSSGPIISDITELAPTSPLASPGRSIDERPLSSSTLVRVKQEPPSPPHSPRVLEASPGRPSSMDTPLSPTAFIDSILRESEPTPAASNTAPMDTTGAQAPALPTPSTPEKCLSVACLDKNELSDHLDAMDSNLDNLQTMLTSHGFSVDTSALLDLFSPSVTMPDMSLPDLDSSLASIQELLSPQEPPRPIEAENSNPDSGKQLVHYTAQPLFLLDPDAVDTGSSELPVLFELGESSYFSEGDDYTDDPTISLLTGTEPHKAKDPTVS
# [12] = target: Hepatocyte nuclear factor 4-alpha (Homo sapiens, UniProt P41235); type: functional, cell-based;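 further: biochemical luminescence-based dose-response counterscreen measuring inhibition of HNF4 dimerization, run alongside a screen for blockers of ABHD5–perilipin-5 interaction; split luciferase complementation of HNF4 fusion proteins in cell lysate measuring dimerization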
# A-375 = test: MITF: Counter assay: A375 proliferation Measured in Cell-Based System Using Plate Reader - 2084-03_Inhibitor_Dose_DryPowder_Activity. [Related pubchem assays (depositor defined):AID488944]; type: functional; details: Homo sapiens
# [13] = microbe, parasite or virus in culture; type: functional; details: Mycobacterium tuberculosis
# T1 sequence (P25098 whole entry): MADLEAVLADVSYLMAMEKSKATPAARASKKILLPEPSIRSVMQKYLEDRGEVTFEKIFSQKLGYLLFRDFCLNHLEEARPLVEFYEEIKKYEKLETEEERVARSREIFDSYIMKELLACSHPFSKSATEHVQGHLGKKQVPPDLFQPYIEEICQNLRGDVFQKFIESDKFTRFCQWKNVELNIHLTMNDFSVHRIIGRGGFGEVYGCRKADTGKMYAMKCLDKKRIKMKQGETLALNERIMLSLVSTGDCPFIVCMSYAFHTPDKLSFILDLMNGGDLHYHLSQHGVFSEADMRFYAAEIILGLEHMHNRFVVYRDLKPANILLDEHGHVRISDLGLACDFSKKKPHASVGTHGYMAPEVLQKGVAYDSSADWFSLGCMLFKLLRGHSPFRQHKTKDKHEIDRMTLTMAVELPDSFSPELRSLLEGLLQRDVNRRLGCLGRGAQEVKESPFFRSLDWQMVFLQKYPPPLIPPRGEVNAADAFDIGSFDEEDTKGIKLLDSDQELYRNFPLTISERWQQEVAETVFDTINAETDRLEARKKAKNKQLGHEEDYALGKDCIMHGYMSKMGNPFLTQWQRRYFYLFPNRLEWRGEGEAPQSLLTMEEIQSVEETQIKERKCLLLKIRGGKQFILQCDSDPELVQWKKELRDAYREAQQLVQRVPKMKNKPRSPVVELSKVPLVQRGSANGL
# Type-1 angiotensin II receptor, sequence (P30556 whole entry): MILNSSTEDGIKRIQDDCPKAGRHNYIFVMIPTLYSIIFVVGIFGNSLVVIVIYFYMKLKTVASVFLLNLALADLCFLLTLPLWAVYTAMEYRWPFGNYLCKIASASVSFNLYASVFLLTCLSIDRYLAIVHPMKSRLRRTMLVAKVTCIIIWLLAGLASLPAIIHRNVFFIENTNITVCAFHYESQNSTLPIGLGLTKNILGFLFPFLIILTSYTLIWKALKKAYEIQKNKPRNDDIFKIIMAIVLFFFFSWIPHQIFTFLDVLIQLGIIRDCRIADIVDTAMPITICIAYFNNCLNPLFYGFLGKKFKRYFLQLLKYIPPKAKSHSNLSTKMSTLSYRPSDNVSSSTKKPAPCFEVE
# Beta-galactosidase, sequence (Q8VNN2 whole entry): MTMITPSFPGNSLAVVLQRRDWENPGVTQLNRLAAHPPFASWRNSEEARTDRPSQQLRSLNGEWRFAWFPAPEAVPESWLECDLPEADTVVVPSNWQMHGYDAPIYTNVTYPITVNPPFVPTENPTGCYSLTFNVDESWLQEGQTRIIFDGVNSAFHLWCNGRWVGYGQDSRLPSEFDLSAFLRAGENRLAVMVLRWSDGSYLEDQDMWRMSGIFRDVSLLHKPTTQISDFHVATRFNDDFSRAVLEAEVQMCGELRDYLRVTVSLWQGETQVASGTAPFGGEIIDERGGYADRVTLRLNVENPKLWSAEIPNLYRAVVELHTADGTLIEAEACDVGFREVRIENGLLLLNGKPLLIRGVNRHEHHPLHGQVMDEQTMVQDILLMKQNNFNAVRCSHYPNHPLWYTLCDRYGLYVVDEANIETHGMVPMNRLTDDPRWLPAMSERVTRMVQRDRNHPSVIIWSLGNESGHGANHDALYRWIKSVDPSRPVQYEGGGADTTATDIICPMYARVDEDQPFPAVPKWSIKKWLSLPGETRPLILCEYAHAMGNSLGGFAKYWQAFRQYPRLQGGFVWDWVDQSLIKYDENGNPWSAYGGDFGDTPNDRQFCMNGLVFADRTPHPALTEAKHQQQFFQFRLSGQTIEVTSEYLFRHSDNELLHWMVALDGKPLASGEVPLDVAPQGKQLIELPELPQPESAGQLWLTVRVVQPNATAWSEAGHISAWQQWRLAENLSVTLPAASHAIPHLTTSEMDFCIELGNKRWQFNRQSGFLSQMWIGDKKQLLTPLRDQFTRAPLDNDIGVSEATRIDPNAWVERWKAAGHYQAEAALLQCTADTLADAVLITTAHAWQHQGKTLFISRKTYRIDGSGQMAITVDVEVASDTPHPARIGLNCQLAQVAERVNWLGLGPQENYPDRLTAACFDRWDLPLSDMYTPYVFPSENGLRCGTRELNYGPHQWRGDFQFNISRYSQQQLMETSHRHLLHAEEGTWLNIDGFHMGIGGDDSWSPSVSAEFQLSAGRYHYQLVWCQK
# Voltage-gated inwardly rectifying potassium channel KCNH2, sequence (Q12809 whole entry): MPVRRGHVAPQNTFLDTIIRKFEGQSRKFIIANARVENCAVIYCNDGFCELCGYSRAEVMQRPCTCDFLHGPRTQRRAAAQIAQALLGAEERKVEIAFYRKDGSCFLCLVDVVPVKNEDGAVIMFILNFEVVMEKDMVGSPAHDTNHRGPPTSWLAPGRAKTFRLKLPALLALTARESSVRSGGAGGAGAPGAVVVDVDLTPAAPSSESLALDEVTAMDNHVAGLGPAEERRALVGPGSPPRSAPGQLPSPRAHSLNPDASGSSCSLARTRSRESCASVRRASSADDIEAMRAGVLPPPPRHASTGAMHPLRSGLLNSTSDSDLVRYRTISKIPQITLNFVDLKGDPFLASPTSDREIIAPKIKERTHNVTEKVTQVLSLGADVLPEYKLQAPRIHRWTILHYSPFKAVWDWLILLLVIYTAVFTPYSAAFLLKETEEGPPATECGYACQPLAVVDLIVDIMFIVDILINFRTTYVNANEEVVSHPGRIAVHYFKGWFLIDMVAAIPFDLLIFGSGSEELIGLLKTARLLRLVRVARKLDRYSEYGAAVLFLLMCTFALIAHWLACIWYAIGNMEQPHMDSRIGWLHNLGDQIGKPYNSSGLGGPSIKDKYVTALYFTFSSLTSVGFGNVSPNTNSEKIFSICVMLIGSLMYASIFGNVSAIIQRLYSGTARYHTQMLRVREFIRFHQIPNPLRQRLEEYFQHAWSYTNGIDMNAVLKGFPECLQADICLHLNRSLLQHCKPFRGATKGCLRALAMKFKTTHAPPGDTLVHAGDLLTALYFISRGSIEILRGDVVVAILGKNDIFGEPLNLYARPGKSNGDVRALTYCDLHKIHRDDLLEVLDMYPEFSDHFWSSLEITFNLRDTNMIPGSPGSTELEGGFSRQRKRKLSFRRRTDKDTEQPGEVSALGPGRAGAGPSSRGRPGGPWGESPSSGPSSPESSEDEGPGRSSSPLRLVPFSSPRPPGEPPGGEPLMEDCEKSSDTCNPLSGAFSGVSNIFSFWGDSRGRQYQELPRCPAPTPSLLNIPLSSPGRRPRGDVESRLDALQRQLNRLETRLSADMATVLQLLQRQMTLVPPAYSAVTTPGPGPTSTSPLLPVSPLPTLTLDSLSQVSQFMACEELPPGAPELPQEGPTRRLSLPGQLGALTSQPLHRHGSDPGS
# Photoreceptor-specific nuclear receptor, sequence (Q9Y5X4 whole entry): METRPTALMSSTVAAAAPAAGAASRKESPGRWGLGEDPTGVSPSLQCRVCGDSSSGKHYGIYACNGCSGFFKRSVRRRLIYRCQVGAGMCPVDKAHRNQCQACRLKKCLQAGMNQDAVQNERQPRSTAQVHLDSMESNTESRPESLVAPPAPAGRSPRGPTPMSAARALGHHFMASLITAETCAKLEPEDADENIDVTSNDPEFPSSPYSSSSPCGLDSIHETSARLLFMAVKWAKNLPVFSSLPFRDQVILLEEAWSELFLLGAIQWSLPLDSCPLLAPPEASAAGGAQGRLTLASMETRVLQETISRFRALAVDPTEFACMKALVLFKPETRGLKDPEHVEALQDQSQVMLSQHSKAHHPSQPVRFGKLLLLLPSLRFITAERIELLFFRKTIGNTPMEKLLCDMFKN
# DNA damage-inducible transcript 3 protein, sequence (P35639 whole entry): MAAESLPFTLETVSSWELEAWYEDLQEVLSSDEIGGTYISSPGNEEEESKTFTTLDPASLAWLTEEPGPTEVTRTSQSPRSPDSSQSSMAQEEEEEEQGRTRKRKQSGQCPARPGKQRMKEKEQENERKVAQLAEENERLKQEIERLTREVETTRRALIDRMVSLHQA
# X-box-binding protein 1, sequence (P17861 whole entry): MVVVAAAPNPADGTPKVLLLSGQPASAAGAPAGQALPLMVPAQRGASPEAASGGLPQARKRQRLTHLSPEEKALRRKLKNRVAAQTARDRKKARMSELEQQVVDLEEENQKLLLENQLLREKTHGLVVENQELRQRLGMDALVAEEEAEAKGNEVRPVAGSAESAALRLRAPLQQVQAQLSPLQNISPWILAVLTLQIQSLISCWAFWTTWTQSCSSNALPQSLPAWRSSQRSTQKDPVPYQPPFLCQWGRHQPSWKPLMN
# Hepatocyte nuclear factor 4-alpha, sequence (P41235 whole entry, the tested form may be a part): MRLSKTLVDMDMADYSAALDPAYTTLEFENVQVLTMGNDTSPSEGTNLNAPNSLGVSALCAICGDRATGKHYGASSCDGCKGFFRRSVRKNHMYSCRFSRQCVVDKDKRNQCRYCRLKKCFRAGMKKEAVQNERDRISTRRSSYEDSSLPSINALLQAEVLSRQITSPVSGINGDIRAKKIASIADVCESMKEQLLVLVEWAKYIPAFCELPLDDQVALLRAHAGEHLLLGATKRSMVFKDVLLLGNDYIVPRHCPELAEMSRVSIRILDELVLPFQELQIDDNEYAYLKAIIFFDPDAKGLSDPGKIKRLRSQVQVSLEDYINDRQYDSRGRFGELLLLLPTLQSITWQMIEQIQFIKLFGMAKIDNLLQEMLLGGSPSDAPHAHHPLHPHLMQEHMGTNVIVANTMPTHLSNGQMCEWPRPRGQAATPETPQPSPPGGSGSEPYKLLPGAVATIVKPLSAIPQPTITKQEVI
smiles,measurement,setting,value
COC1=CC(=O)[C@]2(C=C1OC)OC[C@@H]1Oc3c(ccc4c3C=CC(C)(C)O4)C(=O)[C@@H]12,IC50,Jurkat,28.7 µM (inactive)
same,AC50,INS1,0.671 µM (active)
same,IC50,[1],23 µM (inactive)
Cc1ccc(C(=O)COC(=O)CCC(=O)Nc2ccccc2Cl)cc1[N+](=O)[O-],EC50,Beta-galactosidase,> 40 µM (inactive)
same,IC50,[2],22.9 µM (not active)
CC(=O)CC(C)C [METHYL ISOBUTYL KETONE],AC50,[3],15.8 µM (inconclusive)
O=C1/C(=C/c2ccncc2)CCC/C1=C\c1ccncc1,AC50,[4],8.7 µM (active)
same,Absolute IC50 (CHOP),[5],10 µM
same,EC50,BJ,0.474 µM (active)
same,Absolute IC50 (XBP1),X-box-binding protein 1,10 µM
same,CC50,HeLa,> 1.22 µM (not active)
O=C(CCS(=O)(=O)c1ccc(Br)s1)Nc1ccccc1Br,EC50,[6],20.9 µM (active)
CCc1ccccc1NC(=O)CCS(=O)(=O)c1ccc(OC)cc1,IC50,[7],16.8 µM (not active)
same,IC50,[8],21.1 µM (active)
same,EC50,[9],17.8 µM (inactive)
same,IC50,[10],13.9 µM (not active)
same,EC50,[11],> 195 µM (not active)
COc1ccc(C)c2sc(N(CCN(C)C)C(=O)/C=C/c3cccs3)nc12,IC50,[12],35.2 µM (inactive)
same,AC50,A-375,43.2 µM (active)
same,CC50,[13],12.7 µM (active)
